Legend:
cag T4SS [1] = type: cell-based, H. pylori; settings: screening library, tested concentrations
H. pylori = H. pylori viability (cellular ATP, CellTiter-Glo); type: cell-based; settings: for H. pylori Toxicity: 150 μM, cellular ATP at 18 h of incubation; for viability of bacterial cells: concentrations up to 150 μM
H. pylori cag T4SS = type: cell-based; settings: for T4SS Inhibiton [50 μM] (TLR9 Activation Assay): no bacterial pre-treatment, about 18 hours post-infection, HEK293-TLR9 cells
cag T4SS [2] = assay: NF-κB luciferase reporter activation by H. pylori in AGS cells; type: cell-based; settings: for cag T4SS-dependent NF-κB activation: WT H. pylori, AGS NF-κB-luc cells
Experimental: Quantitation of NF-κB signaling activation. AGS cells stably transfected with an NF-κB-luciferase reporter (AGS NF-κB-luc) were cultured for 24 h and treated as described for the IL-8 induction studies. After 4 h co-culture with H. pylori, cell monolayers were washed with sterile PBS, and cell monolayer extracts were obtained by passive cell lysis. NF-κB-luciferase activity was measured by the Steady-Glo Luciferase Assay System (Promega) on a BioTek Synergy 4 plate reader, and plates were normalized to the DMSO vehicle control for each dilution series.

TLR9 = target: T1, TLR9 (Homo sapiens, UniProt Q9NR96); assay: TLR9 activation by CpG ODN (control); type: cell-based; settings: 50 μM
T1 construct: host or cells: HEK293-TLR9 reporter cell line
T1 sequence (Q9NR96 26-1032): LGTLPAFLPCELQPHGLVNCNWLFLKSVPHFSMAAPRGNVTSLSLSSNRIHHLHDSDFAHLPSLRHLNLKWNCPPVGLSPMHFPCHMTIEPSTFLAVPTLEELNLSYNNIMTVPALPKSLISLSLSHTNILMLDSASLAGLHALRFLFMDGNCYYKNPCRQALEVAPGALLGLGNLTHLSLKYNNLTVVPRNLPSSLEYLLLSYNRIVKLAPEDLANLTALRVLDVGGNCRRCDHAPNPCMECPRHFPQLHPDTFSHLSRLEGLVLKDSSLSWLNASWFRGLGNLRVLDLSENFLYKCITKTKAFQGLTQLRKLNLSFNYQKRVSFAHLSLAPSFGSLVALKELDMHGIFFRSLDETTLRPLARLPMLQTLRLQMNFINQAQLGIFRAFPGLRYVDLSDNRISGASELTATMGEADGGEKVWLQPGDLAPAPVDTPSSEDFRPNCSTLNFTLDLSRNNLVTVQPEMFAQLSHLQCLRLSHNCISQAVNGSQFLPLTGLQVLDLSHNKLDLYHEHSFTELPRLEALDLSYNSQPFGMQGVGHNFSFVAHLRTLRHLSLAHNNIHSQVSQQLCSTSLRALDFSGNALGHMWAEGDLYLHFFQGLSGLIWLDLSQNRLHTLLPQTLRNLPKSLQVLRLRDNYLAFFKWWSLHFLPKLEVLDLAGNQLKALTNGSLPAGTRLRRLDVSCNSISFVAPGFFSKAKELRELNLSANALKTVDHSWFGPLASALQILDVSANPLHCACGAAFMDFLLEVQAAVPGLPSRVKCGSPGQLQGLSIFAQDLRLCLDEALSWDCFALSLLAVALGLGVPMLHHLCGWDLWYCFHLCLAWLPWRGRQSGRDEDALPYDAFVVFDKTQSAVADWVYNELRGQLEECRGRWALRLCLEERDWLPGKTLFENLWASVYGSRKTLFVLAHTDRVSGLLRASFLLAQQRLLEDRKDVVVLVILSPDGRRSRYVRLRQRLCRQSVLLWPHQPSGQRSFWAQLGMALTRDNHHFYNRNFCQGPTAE
Experimental: Inhibition of T4SS-dependent activation of human TLR9 signaling by H. pylori. H. pylori strain J166 was grown in broth culture overnight, and was subsequently pre-treated in the indicated compound at a final concentration of 50 μM, or in an equivalent volume of DMSO vehicle for 30 min prior to inoculating cultured HEK293-TLR9 reporter cell lines. Co-cultures were incubated in the presence of 50 μM compound or an equivalent volume of DMSO vehicle supplemented in the cell culture media for the duration of incubation (18 hours). TLR9 activation was assayed using a colorimetric assay (Invivogen), and TLR9 activation in the presence of type IV secretion system (T4SS) inhibitor compounds is expressed as a percentage of TLR9 activation by H. pylori in the presence of vehicle. As a control, TLR9 was activated with the immunostimulatory synthetic ligand CpG oligodeoxynucleotide (CpG ODN) in the presence of DMSO or inhibitor compound at 50 μM final concentration.

cag T4SS [3] = assay: CagA translocation assay (tyrosine-phosphorylated CagA immunoblot); type: cell-based, H. pylori; settings: 150 μM; compared to vehicle-only and GKP42-treated controls
[4] = tested on: IncN group conjugative T4SS encoded by pKM101; assay: DNA conjugation efficiency, pKM101; settings: 150 μM, compared to vehicle controls
Experimental: (§1) Analysis of DNA conjugation efficiency. Overnight cultures of donor E. coli MG1655 harboring pKM101, donor E. coli MS411 harboring R1-16, and recipient E. coli MG1655 (WM1652) were grown at 37° C. with shaking at 225 rpm in LB/antibiotic, were diluted in antibiotic-free LB containing DMSO or 150 μM compound, and incubated with shaking at 37° C. to reach an OD600 of ˜0.3. Donor and recipient cells were mixed at a ratio of 1:1 on 0.22 μM pore size mixed cellulose ester filters (Millipore) on antibiotic-free LB plates for 2 h at 37° C. Filters were aseptically removed from LB plates and incubated in 100 μl antibiotic-free LB to dislodge E. coli from membranes. Serial dilutions were plated on the appropriate antibiotic (or dual antibiotic) LB plates to determine the number of donor, recipient, and transconjugant cells. Colonies were enumerated after 24 h, and conjugation efficiencies were calculated by dividing the average number of transconjugates by the average number of donors (either pKM101 or R1-16 donor cells). Conjugation efficiency in the presence of compound is expressed as a percentage of conjugation efficiency in DMSO.

[5] = tested on: IncF group R1-16 conjugative T4SS; assay: DNA conjugation efficiency, R1-16; settings: 150 μM
Experimental: as §1

cag T4SS [6] = type: cell-based, H. pylori; settings: for LogEC50, attenuation of cag T4SS-dependent IL-8 secretion / EC50: 4.5 h co-culture, normalized IL-8 secretion, non-linear regression; for cag T4SS-dependent IL-8 secretion: H. pylori-gastric epithelial cell co-culture, 25-150 μM; for EC50: read-out: EC50, attenuation of cag T4SS-dependent IL-8 secretion

O=C(O)[C@@H]1CSc2c(C3CC3)c3c(-c4cccc5ccccc45)n[nH]c3c(=O)n21 [MS218]
cag T4SS activity, structure-activity statements (cag T4SS [1]): inactive

O=C([O-])[C@@H]1CSc2c(C3CC3)c(Cc3cccc4ccccc34)c(CN3CCOCC3)c(=O)n21.[Li+] [NP048]
cag T4SS activity, structure-activity statements (cag T4SS [1]): abolished activity

O=C(O)c1c(Cc2ccccc2)sc2c(C3CC3)c(Cc3cccc4ccccc34)cc(=O)n12 [EC240, reference compound]
H. pylori Toxicity (H. pylori): Toxic | cag T4SS activity, structure-activity statements (cag T4SS [1]): not tolerated

COc1ccc2cc(Cc3cc(=O)n4c(c3C3CC3)SC[C@H]4C(=O)O)ccc2c1 [CB158, (R)-8-cyclopropyl-7-((6-methoxynaphthalen-2-yl)methyl)-5-oxo-2,3-dihydro-5H-thiazolo[3,2-a]pyridine-3-carboxylic acid]
T4SS Inhibiton [50 μM] (TLR9 Activation Assay) (H. pylori cag T4SS): +

O=C(O)[C@@H]1CSc2c(-c3cccc(C(F)(F)F)c3)c(Cc3cccc(COc4cccc5ccccc45)c3)cc(=O)n21 [CB151]
H. pylori Toxicity (H. pylori): Toxic

Cc1cccc(-c2sc3c(-c4cn(C)c5ccccc45)c(COc4cccc5ccccc45)c(CN4CCOCC4)c(=O)n3c2C(=O)O)c1.Cl [EC341]
H. pylori Toxicity (H. pylori): Toxic

O=C(O)C1CS(=O)(=O)c2c(C3CC3)c(Cc3cccc4ccccc34)cc(=O)n21 (stereo not shown) [TW460, 8-cyclopropyl-7-(naphthalen-1-ylmethyl)-5-oxo-2,3-dihydro-5H-thiazolo[3,2-a]pyridine-3-carboxylic acid 1,1-dioxide]
T4SS Inhibiton [50 μM] (TLR9 Activation Assay) (H. pylori cag T4SS): +

O=C(O)[C@@H]1CSc2c(C3CC3)c(Cc3ccc4ccccc4c3)cc(=O)n21 [KSK61, (R)-8-cyclopropyl-7-(naphthalen-2-ylmethyl)-5-oxo-2,3-dihydro-5H-thiazolo[3,2-a]pyridine-3-carboxylic acid]
T4SS Inhibiton [50 μM] (TLR9 Activation Assay) (H. pylori cag T4SS): ++

O=c1cc(Cc2cccc3ccccc23)c(C2CC2)c2n1CCS2 [EC013]
T4SS Inhibiton [50 μM] (TLR9 Activation Assay) (H. pylori cag T4SS): +++ (Very good T4SS inhibition (reproducibly inhibits T4SS activity by at least 50%, with representative results of about 80% inhibition at higher concentrations))

O=C(O)C1CSc2c(C3CC3)c(Cc3cccc4ccccc34)cc(=O)n21 (racemic) [rac-C10]
T4SS Inhibiton [50 μM] (TLR9 Activation Assay) (H. pylori cag T4SS): ++

O=C(Nc1ccccc1)C1CSc2c(C3CC3)c(Cc3cccc4ccccc34)cc(=O)n21 (stereo not shown) [KSK165]
T4SS Inhibiton [50 μM] (TLR9 Activation Assay) (H. pylori cag T4SS): +++ (Very good T4SS inhibition (reproducibly inhibits T4SS activity by at least 50%, with representative results of about 80% inhibition at higher concentrations))

O=C([O-])[C@@H]1CSc2c(-c3ccccc3)c(Cc3cccc4ccccc34)cc(=O)n21.[Li+] [PhenylC8]
cag T4SS activity, structure-activity statements (cag T4SS [1]): not tolerated

O=C(O)[C@H]1CSc2c(C3CC3)c(Cc3cccc4ccccc34)cc(=O)n21 [JG14, (S)-8-cyclopropyl-7-(naphthalen-1-ylmethyl)-5-oxo-2,3-dihydro-5H-thiazolo[3,2-a]pyridine-3-carboxylic acid]
T4SS Inhibiton [50 μM] (TLR9 Activation Assay) (H. pylori cag T4SS): ++

O=C(O)[C@@H]1CSc2c(C3CC3)c(Cc3cccc4ccccc34)cc(=O)n21 [Compound C10, (3R)-8-cyclopropyl-7-(naphthalen-1-ylmethyl)-5-oxo-3,5-dihydro-2H-thiazolo[3,2-a]pyridine-3-carboxylic acid]
cag T4SS-dependent NF-κB activation (cag T4SS [2]): significantly reduced | cag T4SS-mediated NF-κB activation by H. pylori strains of different phylogeographic origins (cag T4SS [2]; multiple H. pylori strains): inhibited | NF-κB activation by H. pylori ΔcagA mutant compared to WT strain (cag T4SS [2]; ΔcagA mutant): the same as those observed in the WT strain | activation of TLR9 by CpG ODN (TLR9): not by CpG ODN | amount of tyrosine-phosphorylated CagA in cultured gastric epithelial cells (cag T4SS [3]): significantly reduced | viability of bacterial cells (H. pylori): did not impact viability | T4SS Inhibiton [50 μM] (TLR9 Activation Assay) (H. pylori cag T4SS): ++ | T4SS-dependent activation of TLR9 by H. pylori (H. pylori cag T4SS; strain J166 pre-treated 30 min, 50 μM, 18 hours): inhibit | DNA conjugation efficiency of pKM101 [4]: reduced | DNA conjugation efficiency of the de-repressed R1-16 system [5]: reduced DNA transfer | LogEC50, attenuation of cag T4SS-dependent IL-8 secretion (cag T4SS [6]): −1.19 | cag T4SS-dependent IL-8 secretion (cag T4SS [6]): significantly reduced | EC50 (cag T4SS [6]): 64.5 µM

O=C(O)[C@@H]1CSc2c(C3CC3)c3cn(-c4ccccc4)cc3c(=O)n21 [GKP42, (3R)-9-cyclopropyl-5-oxo-7-phenyl-2,3,5,7-tetrahydropyrrolo[3,4-d][1,3]thiazolo[3,2-a]pyridine-3-carboxylic acid]
cag T4SS-dependent NF-κB activation (cag T4SS [2]): did not attenuate | viability of bacterial cells (H. pylori): did not impact viability | cag T4SS activity, structure-activity statements (cag T4SS [1]): inactive | LogEC50, attenuation of cag T4SS-dependent IL-8 secretion (cag T4SS [6]): −0.648 | cag T4SS-dependent IL-8 secretion (cag T4SS [6]): minimal or no effects | EC50 (cag T4SS [6]): 225 µM

O=C(O)C1CSc2c(C3CC3)c(Cc3ccc(OC4O[C@H](CO)[C@@H](O)[C@@H](O)[C@@H]4O)c4ccccc34)cc(=O)n21 (stereo partly drawn) [PS402, 8-cyclopropyl-5-oxo-7-((4-(((3S,4R,5S,6R)-3,4,5-trihydroxy-6-(hydroxymethyl)tetrahydro-2H-pyran-2-yl)oxy)naphthalen-1-yl)methyl)-2,3-dihydro-5H-thiazolo[3,2-a]pyridine-3-carboxylic acid]
T4SS Inhibiton [50 μM] (TLR9 Activation Assay) (H. pylori cag T4SS): ++

CCOc1ccc(Cc2cc(=O)n3c(c2C2CC2)SC[C@H]3C(=O)O)c2ccccc12 [(R)-JG131, (R)-8-cyclopropyl-7-((4-ethoxynaphthalen-1-yl)methyl)-5-oxo-2,3-dihydro-5H-thiazolo[3,2-a]pyridine-3-carboxylic acid]
T4SS Inhibiton [50 μM] (TLR9 Activation Assay) (H. pylori cag T4SS): +++ (Very good T4SS inhibition (reproducibly inhibits T4SS activity by at least 50%, with representative results of about 80% inhibition at higher concentrations))

O=C(O)[C@@H]1CSc2c(C3CC3)c(Cc3cccc(COc4cccc5ccccc45)c3)cc(=O)n21 [CB160]
H. pylori Toxicity (H. pylori): Toxic

O=C(O)C1CSc2c(C3CC3)c(Cc3ccc(C(F)(F)F)c4ccccc34)cc(=O)n21 (stereo not shown) [KSK88, 8-cyclopropyl-5-oxo-7-((4-(trifluoromethyl)naphthalen-l1yl)methyl)-2,3-dihydro-5H-thiazolo[3,2-a]pyridine-3-carboxylic acid]
T4SS Inhibiton [50 μM] (TLR9 Activation Assay) (H. pylori cag T4SS): +++ (Very good T4SS inhibition (reproducibly inhibits T4SS activity by at least 50%, with representative results of about 80% inhibition at higher concentrations))

COc1ccc(Cc2cc(=O)n3c(c2C2CC2)SC[C@@H]3C(=O)O)c2ccccc12 [(S)-JG202, (S)-8-cyclopropyl-7-((4-methoxynaphthalen-1-yl)methyl)-5-oxo-2,3-dihydro-5H-thiazolo[3,2-a]pyridine-3-carboxylic acid]
T4SS Inhibiton [50 μM] (TLR9 Activation Assay) (H. pylori cag T4SS): ++

O=C(O)[C@@H]1CSc2c(-c3cccc(C(F)(F)F)c3)c(Cc3cccc4ccccc34)cc(=O)n21 [FN075, reference compound]
H. pylori Toxicity (H. pylori): Toxic | cag T4SS activity, structure-activity statements (cag T4SS [1]): not tolerated
